Values of other authors in patent US20150174190A1, “Formulation Against General, Physical, And/Or Mental Fatigue” (priority 2013, published 2015).

Test system: patients that suffered from fatigue

## CC(C)[C@H](N)C(=O)OCC(CO)OCn1cnc2c(=O)nc(N)[nH]c21 (stereo partly shown) [Valganciclovir]
  Effect on physical and cognitive performance: improved physical and cognitive performance
